For experiment [1], the target named is T1, Serotonin 2 (5-HT2) receptor (Rattus norvegicus, UniProt P30994+P08909+P14842).
For experiment [2], the target named is T2, Serotonin 1 (5-HT1) receptor (Rattus norvegicus, UniProt P28564+P30940+P19327+P28565).
In experiment [3] the target is T3, 5-hydroxytryptamine receptor 1A (Rattus norvegicus, UniProt P19327).
T3 sequence (P19327 whole entry): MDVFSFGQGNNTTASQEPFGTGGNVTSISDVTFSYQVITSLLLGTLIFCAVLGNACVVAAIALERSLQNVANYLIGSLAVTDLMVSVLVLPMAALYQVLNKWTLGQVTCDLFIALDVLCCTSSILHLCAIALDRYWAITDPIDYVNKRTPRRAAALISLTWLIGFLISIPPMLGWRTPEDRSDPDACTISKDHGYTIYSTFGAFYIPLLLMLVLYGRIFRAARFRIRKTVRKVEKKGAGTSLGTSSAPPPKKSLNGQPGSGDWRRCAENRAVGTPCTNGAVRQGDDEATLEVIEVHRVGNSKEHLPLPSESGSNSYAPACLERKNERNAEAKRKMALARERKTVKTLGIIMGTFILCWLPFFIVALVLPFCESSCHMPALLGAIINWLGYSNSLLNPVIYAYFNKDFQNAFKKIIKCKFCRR

Experiment [4] deals with T4, 5-hydroxytryptamine receptor 1B (Rattus norvegicus, UniProt P28564).
T4 sequence (P28564 whole entry): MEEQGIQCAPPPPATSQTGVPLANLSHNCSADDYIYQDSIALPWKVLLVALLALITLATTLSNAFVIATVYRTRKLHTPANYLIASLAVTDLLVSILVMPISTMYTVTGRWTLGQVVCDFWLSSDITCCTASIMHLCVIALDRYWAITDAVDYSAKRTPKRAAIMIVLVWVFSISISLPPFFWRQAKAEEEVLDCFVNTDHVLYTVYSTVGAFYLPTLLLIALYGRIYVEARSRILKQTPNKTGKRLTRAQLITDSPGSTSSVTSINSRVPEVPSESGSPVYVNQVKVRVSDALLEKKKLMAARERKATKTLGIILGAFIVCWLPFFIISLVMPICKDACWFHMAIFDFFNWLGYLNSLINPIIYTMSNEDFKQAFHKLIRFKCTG
Experiment [5] concerns the target T2, Serotonin 1 (5-HT1) receptor. Briefly: Binding affinity towards 5-hydroxytryptamine 1 receptor was determined. It counts as protein assay.
For experiment [6], the target named is T1, Serotonin 2 (5-HT2) receptor. Briefly: Binding affinity to rat cortical membranes at 5-hydroxytryptamine 2 receptor binding site by using [3H]- DOB as a radioligand.
Experiment [7] shares this target. Briefly: Binding affinity to rat cortical membranes at 5-hydroxytryptamine 2 receptor binding site by using [3H]- DOB as a radioligand.
Experiment [8] shares this target. This is another data set of the same source.
Experiment [9] shares this target. The source holds these as a separate data set.
The target of experiment [10] is T4, 5-hydroxytryptamine receptor 1B. The source holds these as a separate data set.
Description: Binding affinity towards 5-HT1B was determined
Experiment [11] addresses T1, Serotonin 2 (5-HT2) receptor. This is another data set of the same source.

With `COc1cc(C[C@H](C)N)c(OC)cc1I`, the Ki in experiment [1] worked out at 35 nM; in [2], 920 nM.

Consider `CN[C@H](C)Cc1cc(OC)c(C)cc1OC`, for which the results for the Ki in [1] and in experiment [2] were 260 nM and 4300 nM, respectively.

As to `COc1cc([N+](=O)[O-])c(OC)cc1C[C@@H](C)N`, the Ki in experiment [1] was 210 nM; in [2], 13200 nM.

With `NCCc1c[nH]c2ccc(C(N)=O)cc12`, the Ki in experiment [3] amounted to 0.2 nM; in [4], 5 nM.

For `NCCc1c[nH]c2cccc(O)c12`, the figures for the Ki in experiment [1], in experiment [3] and in experiment [4] were 725 nM, 95 nM and 1050 nM, respectively.

For the compound `CNC(C)Cc1cc(OC)c(C)cc1OC` (configuration not stated), the Ki in experiment [1] came to 415 nM; in experiment [2] it was 3870 nM.

As to `NCCc1c[nH]c2cc(O)ccc12`, the figures for the Ki in experiment [1], in [3] and in experiment [4] were 11500 nM, 1590 nM and 5890 nM, respectively.

`C[C@@H](N)Cc1ccc2c(c1)OCO2`: in [2], the Ki is recorded as 13000 nM.

As to `COc1cc(CC(C)N)c(OC)cc1F` (configuration not stated), the Ki in experiment [1] is 1110 nM; in experiment [2], 3370 nM.

`FC(F)(F)c1cccc(N2CCNCC2)c1`: the inhibition constant Ki in experiment [2] is 20 nM; in experiment [3], 1950 nM; in [4] it was 30 nM.

In experiment [5], `c1ccc2c(N3CCNCC3)cccc2c1` gave a Ki of 5 nM.

As to `CNCCc1c[nH]c2ccc(O)cc12`, the Ki is 180 nM in experiment [1], 5 nM in experiment [3] and 45 nM in experiment [4].

As for `COc1ccc(CC(C)N)cc1OC` (configuration not stated), the Ki in experiment [1] was 43300 nM; in experiment [2], 64600 nM.

As to `c1ccc2cc(N3CCNCC3)ccc2c1`, the inhibition constant Ki in [5] is 265 nM.

`COc1cc(C[C@@H](C)N)c(OC)cc1C` came in with a Ki in experiment [2] of 3550 nM.

Consider `COc1cc(C[C@H](C)N)c(OC)cc1Br`, for which, in experiment [2], the Ki came out at 5000 nM.

Turning to `CCc1cc(OC)c(CC(C)N)cc1OC` (configuration not stated), in experiment [2], the Ki was 4570 nM.

As for `COc1cc([N+](=O)[O-])c(OC)cc1CC(C)N` (configuration not stated), the Ki in [1] was found to be 300 nM; in experiment [2], 14100 nM.

Turning to `COc1cc(OC)c(OC)cc1CC(C)N` (configuration not stated), the Ki in experiment [2] amounted to 46400 nM.

Turning to `CCCc1cc(OC)c(CC(C)N)cc1OC` (configuration not stated), the Ki is 69 nM in experiment [1] and 3170 nM in experiment [2].

In turn, `CC(C)NCC(O)COc1cccc2[nH]ccc12` (single isomer, unassigned; (-)) [PINDOLOL] returned a Ki in [3] of 20 nM.

In turn, `COc1cc(C[C@@H](C)N)c(OC)cc1Br` (stereo in doubt; form 1) returned a Ki in experiment [2] of 4200 nM.

In experiment [2], `COc1cc(C[C@@H](C)N)c(OC)cc1Br` (stereo in doubt; form 2) showed a Ki of 4200 nM.

Consider `CCCN(CCC)C1CCc2cccc(O)c2C1` (configuration not stated) [8-OH-DPAT], for which the Ki in [1] came out at 5500 nM; in [6] it was 700 nM.

On to `CN(C)CCc1c[nH]c2ccc(O)cc12` [BUFOTENINE], for which the Ki was 380 nM in [1], 259 nM in experiment [3] and 910 nM in experiment [4].

Take `Clc1cccc(N2CCNCC2)c1` [CHLOROPHENYLPIPERAZINE]: the Ki is 2400 nM in [3] and 75 nM in experiment [4].

On to `CN(C)CCCSc1ccccc1NC(=O)/C=C/c1ccccc1` [CINANSERIN], for which the Ki in experiment [1] came to 4 nM; in [2] it was 3500 nM; in experiment [7] it was 4 nM; in experiment [8], 4 nM; in experiment [4], 1000 nM.

Compound `COc1cc(CC(C)N)c(OC)cc1C` (configuration not stated) [DOM] returned a Ki in experiment [2] of 2890 nM.

Consider `O=C1c2ccccc2S(=O)(=O)N1CCCCN1CCN(c2ncccn2)CC1` [IPSAPIRONE], for which the results for the IC50 in experiment [9] and in experiment [10] were 10000 nM and 26000 nM, respectively.

As to `O=C(c1ccc(F)cc1)C1CCN(CCn2c(=O)[nH]c3ccccc3c2=O)CC1` [KETANSERIN], the Ki in [3] and in [4] was 1900 nM each time.

For `COc1ccc2[nH]cc(CCN(C)C)c2c1` [MEBUFOTENIN], the Ki in [2] was 50 nM; in [3] it was 20 nM; in experiment [4] it was 90 nM.

On to `CN1C[C@@H](NS(=O)(=O)N(C)C)C[C@@H]2c3cccc4c3c(cn4C)C[C@H]21` [MESULERGINE], for which the Ki worked out at 300 nM in experiment [3] and 13000 nM in experiment [4].

For the compound `CN1C[C@H](CNC(=O)OCc2ccccc2)C[C@@H]2c3cccc4c3c(cn4C)C[C@H]21` [METERGOLINE], the Ki in experiment [2] was found to be 20 nM; in experiment [3], 6 nM; in experiment [4], 25 nM.

As to `COc1ccc(CC(C)N)cc1` (configuration not stated) [PARA-METHOXYAMPHETAMINE], the Ki in experiment [1] is 33600 nM; in experiment [2], 79400 nM.

The compound `c1ccc(N2CCNCC2)cc1` [PHENYLPIPERAZINE] had a Ki in experiment [5] of 135 nM.

As for `Cc1nc2ccccn2c(=O)c1CCN1CCC(C(=O)c2ccc(F)cc2)CC1` [PIRENPERONE], the Ki stood at 0.3 nM in experiment [11], 1700 nM in experiment [3], 1 nM in experiment [8] and 6600 nM in experiment [4].

With `c1ccc2nc(N3CCNCC3)ccc2c1` [QUIPAZINE], the Ki came out at 17 nM in experiment [7], 645 nM in experiment [8] and 320 nM in experiment [4].

`COc1ccc2[nH]cc(C3=CCNCC3)c2c1` [RU-24969] came in with a Ki in experiment [4] of 4 nM.

`O=C(CCCN1CCC2(CC1)C(=O)NCN2c1ccccc1)c1ccc(F)cc1` [SPIPERONE]: the inhibitory constant (Ki) in [2] was determined as 160 nM; in experiment [3], 40 nM; in experiment [4], 4800 nM.

On to `NCCc1c[nH]c2ccccc12` [TRYPTAMINE], for which the Ki was found to be 2895 nM in experiment [1], 50 nM in [7] and 170 nM in experiment [3].

The values are drawn from ChEMBL document CHEMBL1123653 (J Med Chem, 1987).
